Patent publication US20230416232A1, “PYRIMIDINE COMPOUNDS, COMPOSITIONS, AND MEDICINAL APPLICATIONS THEREOF” (Blueprint Medicines Corporation, priority 2020, published 2023)

Experiments:
Format in all cases: cell-based
A431 cells = assay: Cellular proliferation (Alamar Blue) assay, A431 cells; details: Homo sapiens, A-431, 72 h, A431 cells; 72 hr; Alamar Blue; read-out: A431 IC50
Experimental: (§1) • 1. Seed cells at 5000 for A431 and 15,000 cells for Ba/F3 in 100 μL/well in complete media (for A431: DMEM with 10% FBS and for Ba/F3 cells: RPMI with 10% FBS) in 96-well tissue culture plate. Leave outer wells without cells for background measurements. Incubate at 37 degree Celsius in 5% CO2 humidified incubator for 16-18 hours. • 2. Add 0.025 ml of 5X concentration compound dilution or DMSO control. Final compound concentration range is 10-0.0005 μM prepared in 3-fold serial dilutions. Incubate for 72 hr at 37 degree Celsius in 5% CO2 humidified incubator. • 3. Add 0.0125 ml Alamar Blue™ reagent to each well with multi-channel pipette and tap gently on each side of the plate to mix. Incubate for 3 hours at 37 degree Celsius in 5% CO2 humidified incubator. • 4. […] Data analysis was performed using XLfit 5.5.0.5.

[1] = target: EGFR(D770_N771insSVD) expressing Ba/F3 stable cell line (Homo sapiens, UniProt P00533, DUP768-770, cells depend on it); assay: Cellular proliferation (Alamar Blue) assay, EGFR(D770_N771insSVD) Ba/F3; details: 72 hr, read-out: D770 IC50
EGFR(D770_N771insSVD) expressing Ba/F3 stable cell line, sequence (P00533 with tags, fused parts or gaps DUP768-770): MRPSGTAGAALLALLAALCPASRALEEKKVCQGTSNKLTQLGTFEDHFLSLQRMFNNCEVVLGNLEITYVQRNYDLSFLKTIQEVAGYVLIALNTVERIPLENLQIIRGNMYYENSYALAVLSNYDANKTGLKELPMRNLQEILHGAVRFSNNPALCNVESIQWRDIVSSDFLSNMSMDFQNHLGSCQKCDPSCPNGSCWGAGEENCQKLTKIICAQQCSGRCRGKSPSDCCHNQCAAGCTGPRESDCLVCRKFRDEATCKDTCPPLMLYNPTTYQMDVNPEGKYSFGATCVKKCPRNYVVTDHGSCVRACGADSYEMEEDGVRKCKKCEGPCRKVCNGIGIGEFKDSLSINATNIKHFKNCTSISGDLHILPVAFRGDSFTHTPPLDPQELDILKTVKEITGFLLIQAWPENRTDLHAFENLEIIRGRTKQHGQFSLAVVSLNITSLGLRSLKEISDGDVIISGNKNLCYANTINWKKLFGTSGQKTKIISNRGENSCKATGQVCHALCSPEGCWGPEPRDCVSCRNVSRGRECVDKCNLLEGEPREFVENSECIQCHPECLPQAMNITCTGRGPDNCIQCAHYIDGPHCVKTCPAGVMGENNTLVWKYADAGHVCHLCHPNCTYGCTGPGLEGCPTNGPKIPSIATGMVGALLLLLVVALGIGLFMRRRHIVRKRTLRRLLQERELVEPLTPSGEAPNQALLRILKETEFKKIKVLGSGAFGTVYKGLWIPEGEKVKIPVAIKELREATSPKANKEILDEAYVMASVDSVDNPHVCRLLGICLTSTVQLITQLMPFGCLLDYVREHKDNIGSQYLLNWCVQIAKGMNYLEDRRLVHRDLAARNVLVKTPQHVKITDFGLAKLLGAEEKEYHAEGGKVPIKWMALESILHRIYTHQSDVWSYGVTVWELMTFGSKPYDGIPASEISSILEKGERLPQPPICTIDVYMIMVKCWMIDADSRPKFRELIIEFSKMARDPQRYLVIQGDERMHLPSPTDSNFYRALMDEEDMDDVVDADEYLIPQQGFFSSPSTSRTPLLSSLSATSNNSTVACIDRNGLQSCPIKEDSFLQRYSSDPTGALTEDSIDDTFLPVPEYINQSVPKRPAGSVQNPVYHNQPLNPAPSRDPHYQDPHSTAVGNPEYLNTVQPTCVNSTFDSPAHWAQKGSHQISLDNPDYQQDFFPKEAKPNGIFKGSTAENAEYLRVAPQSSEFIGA
Experimental: (§2) Cell line details: • 1. EGFR(D770_N771insSVD) expressing Ba/F3 stable cell line • 2. EGFR (A767_dupASV) expressing Ba/F3 stable cell line • 3. A431 cells • 4. EGFR (H773insNPH) expressing Ba/F3 stable cell line • 5. HER2 (A775_G776insYVMA) expressing Ba/F3 stable cell line
as §1

[2] = target: EGFR (A767_dupASV) expressing Ba/F3 stable cell line (Homo sapiens, UniProt P00533, DUP767-769, cells depend on it); assay: Cellular proliferation (Alamar Blue) assay, EGFR (A767_dupASV) Ba/F3; details: 72 hr, read-out: A767 IC50
EGFR (A767_dupASV) expressing Ba/F3 stable cell line, sequence (P00533 with tags, fused parts or gaps DUP767-769): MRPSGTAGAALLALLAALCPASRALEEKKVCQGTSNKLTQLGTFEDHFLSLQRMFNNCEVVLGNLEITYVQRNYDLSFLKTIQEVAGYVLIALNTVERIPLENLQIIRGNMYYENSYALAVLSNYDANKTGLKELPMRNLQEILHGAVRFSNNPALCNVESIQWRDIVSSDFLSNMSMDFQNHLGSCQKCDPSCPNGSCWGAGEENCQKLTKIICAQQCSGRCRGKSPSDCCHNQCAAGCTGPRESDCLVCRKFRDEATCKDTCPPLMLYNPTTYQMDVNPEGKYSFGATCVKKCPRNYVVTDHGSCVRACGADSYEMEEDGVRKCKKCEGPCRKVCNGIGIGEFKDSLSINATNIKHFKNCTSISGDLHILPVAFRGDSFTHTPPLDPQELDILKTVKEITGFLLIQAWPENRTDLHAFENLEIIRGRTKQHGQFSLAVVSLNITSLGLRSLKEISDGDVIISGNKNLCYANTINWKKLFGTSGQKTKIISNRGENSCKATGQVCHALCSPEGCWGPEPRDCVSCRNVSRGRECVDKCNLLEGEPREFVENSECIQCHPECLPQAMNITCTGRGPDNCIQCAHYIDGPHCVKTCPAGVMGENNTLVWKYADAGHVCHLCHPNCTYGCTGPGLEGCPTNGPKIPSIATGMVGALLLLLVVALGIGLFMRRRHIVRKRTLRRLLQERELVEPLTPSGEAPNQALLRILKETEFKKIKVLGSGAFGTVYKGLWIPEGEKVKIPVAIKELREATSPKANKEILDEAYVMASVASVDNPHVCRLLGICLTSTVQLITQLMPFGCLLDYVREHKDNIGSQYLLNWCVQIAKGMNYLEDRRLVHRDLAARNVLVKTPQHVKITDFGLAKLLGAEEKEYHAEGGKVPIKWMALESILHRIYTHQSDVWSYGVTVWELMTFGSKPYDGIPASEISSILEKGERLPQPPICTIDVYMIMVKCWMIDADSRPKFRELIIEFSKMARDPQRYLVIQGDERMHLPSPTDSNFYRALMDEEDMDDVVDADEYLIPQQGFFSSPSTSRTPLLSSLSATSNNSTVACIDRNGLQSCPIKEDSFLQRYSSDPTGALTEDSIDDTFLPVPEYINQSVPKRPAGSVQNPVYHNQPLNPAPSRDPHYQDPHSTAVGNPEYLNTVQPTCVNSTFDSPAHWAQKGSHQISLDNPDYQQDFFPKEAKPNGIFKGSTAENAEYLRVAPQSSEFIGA
Experimental: as §2, §1

[3] = target: HER2 (A775_G776insYVMA) expressing Ba/F3 stable cell line (Homo sapiens, UniProt P04626, DUP772-775, cells depend on it); assay: Cellular proliferation (Alamar Blue) assay, HER2 (A775_G776insYVMA) Ba/F3; details: HER2 (A775_G776insYVMA) Ba/F3 cells; 72 hr; Alamar Blue; read-out: YVMA IC50
HER2 (A775_G776insYVMA) expressing Ba/F3 stable cell line, sequence (P04626 with tags, fused parts or gaps DUP772-775): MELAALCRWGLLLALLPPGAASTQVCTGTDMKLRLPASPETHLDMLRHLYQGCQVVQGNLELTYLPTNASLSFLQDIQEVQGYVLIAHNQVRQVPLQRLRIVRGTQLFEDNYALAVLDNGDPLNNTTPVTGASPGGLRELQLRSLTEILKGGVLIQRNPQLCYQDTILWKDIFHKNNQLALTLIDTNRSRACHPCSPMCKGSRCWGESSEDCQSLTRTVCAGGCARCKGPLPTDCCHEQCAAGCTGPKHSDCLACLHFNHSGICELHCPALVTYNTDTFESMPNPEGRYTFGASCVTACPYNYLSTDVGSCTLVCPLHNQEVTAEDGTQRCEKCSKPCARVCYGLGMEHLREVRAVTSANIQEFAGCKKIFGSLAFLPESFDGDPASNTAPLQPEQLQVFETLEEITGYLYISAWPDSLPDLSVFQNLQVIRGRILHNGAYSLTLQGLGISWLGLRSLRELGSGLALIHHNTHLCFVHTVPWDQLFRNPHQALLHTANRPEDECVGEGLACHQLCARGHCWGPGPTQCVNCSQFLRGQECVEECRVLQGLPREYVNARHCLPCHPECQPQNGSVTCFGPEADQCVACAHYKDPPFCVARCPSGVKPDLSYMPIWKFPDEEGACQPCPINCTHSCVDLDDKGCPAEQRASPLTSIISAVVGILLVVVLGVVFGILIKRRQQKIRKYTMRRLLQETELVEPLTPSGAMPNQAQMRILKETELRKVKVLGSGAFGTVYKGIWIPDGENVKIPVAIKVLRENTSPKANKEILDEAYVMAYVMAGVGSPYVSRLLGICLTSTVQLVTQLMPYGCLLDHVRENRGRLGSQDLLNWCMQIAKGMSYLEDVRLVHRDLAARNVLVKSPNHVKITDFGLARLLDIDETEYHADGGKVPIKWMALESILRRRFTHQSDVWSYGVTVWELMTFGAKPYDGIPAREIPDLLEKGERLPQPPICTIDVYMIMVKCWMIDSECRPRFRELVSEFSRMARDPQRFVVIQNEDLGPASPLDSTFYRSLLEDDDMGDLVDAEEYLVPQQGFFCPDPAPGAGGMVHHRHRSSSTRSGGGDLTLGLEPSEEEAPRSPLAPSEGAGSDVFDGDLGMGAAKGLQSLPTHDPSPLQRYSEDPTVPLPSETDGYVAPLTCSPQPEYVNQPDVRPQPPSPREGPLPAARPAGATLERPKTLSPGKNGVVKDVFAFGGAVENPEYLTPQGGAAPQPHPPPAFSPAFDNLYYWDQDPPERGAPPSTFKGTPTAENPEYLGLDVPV
Experimental: as §2, §1

Row | Structure (SMILES) | IC50 (A431 cells) [nM] | GI50 [1] [nM] | GI50 [2] [nM] | GI50 [3] [nM]
1 | CN(C)C/C=C/C(=O)Nc1ccc(F)c(Nc2nc(Nc3cnn(C)c3)ncc2-c2cc(F)cc(F)c2)c1 [Compound 117, (E)-N-(3-((5-(3,5-difluorophenyl)-2-((1-methyl-1H-pyrazol-4-yl)amino)pyrimidin-4-yl)amino)-4-fluorophenyl)-4-(dimethylamino)but-2-enamide] | 668 | 135 | 328 | 141
2 | C=CC(=O)Nc1cccc(Nc2nc(Nc3cnn(C)c3)ncc2-c2ccc(Br)c(F)c2)c1 [Compound 115, N-(3-((5-(4-bromo-3-fluorophenyl)-2-((1-methyl-1H-pyrazol-4-yl)amino)pyrimidin-4-yl)amino)phenyl)acrylamide] | 11 | 32 | 36 | 86
3 | C=CC(=O)Nc1cc(F)c(F)c(Nc2nc(Nc3cnn(C)c3)ncc2-c2cc(F)cc(OC)c2)c1 [Compound 170, N-(3,4-difluoro-5-((5-(3-fluoro-5-methoxyphenyl)-2-((1-methyl-1H-pyrazol-4-yl)amino)pyrimidin-4-yl)amino)phenyl)acrylamide] | 5250 | > 10000 | > 10000 | > 9040
4 | C=CC(=O)Nc1cc(F)cc(Nc2nc(Nc3cnn(C)c3)ncc2-c2cc(F)c(Br)c(Cl)c2)c1 [Compound 163, N-(3-((5-(4-bromo-3-chloro-5-fluorophenyl)-2-((1-methyl-1H-pyrazol-4-yl)amino)pyrimidin-4-yl)amino)-5-fluorophenyl)acrylamide] | 128 | 26 | 22 | 104
5 | CN(C)C/C=C/C(=O)Nc1cccc(Nc2nc(Nc3cnn(C)c3)ncc2-c2cc(F)cc(F)c2)c1 [Compound 150, (E)-N-(3-((5-(3,5-difluorophenyl)-2-((1-methyl-1H-pyrazol-4-yl)amino)pyrimidin-4-yl)amino)phenyl)-4-(dimethylamino)but-2-enamide] | 214 | 126 | 110 | 237
6 | C=CC(=O)Nc1cc(Br)cc(Nc2nc(Nc3cnn(C)c3)ncc2-c2ccc(OC(F)F)c(F)c2)c1 [Compound 132, N-(3-bromo-5-((5-(4-(difluoromethoxy)-3-fluorophenyl)-2-((1-methyl-1H-pyrazol-4-yl)amino)pyrimidin-4-yl)amino)phenyl)acrylamide] | 51 | 34 | 40 | 345
7 | C=CC(=O)Nc1cccc(Nc2nc(Nc3cnn(C)c3)ncc2-c2cc(F)c(Br)c(F)c2)c1 [Compound 152, N-(3-((5-(4-bromo-3,5-difluorophenyl)-2-((1-methyl-1H-pyrazol-4-yl)amino)pyrimidin-4-yl)amino)phenyl)acrylamide] | 8 | 11 | 34 | 40
8 | C=CC(=O)Nc1ccc(F)c(Nc2nc(Nc3cn(C)nc3Cl)ncc2-c2cc(F)cc(F)c2)c1 [Compound 104, N-(3-((2-((3-chloro-1-methyl-1H-pyrazol-4-yl)amino)-5-(3,5-difluorophenyl)pyrimidin-4-yl)amino)-4-fluorophenyl)acrylamide] | 17 | 34 | 44 | 64
9 | C=CC(=O)Nc1cc(Cl)cc(Nc2nc(Nc3cnn(C)c3)ncc2-c2ccc(Br)c(F)c2)c1 [Compound 159, N-(3-((5-(4-bromo-3-fluorophenyl)-2-((1-methyl-1H-pyrazol-4-yl)amino)pyrimidin-4-yl)amino)-5-chlorophenyl)acrylamide] | 23 | 24 | 29 | 125
10 | C=CC(=O)Nc1ccc(F)c(Nc2nc(Nc3cnn(C)c3)ncc2-c2cc(F)cc(OCC(F)(F)F)c2)c1 [Compound 176, N-(4-fluoro-3-((5-(3-fluoro-5-(2,2,2-trifluoroethoxy)phenyl)-2-((1-methyl-1H-pyrazol-4-yl)amino)pyrimidin-4-yl)amino)phenyl)acrylamide] |  | 1130 | 859 | > 10000

Now from value to compound:

Row | IC50 (A431 cells) [nM] | GI50 [1] [nM] | GI50 [2] [nM] | GI50 [3] [nM] | Structure (SMILES)
11 | 394 | 251 | 322 | 1270 | C=CC(=O)Nc1ccc(F)c(Nc2nc(Nc3cnn(C)c3)ncc2-c2cc(F)c(C(F)(F)F)c(OC)c2)c1 [Compound 133, N-(4-fluoro-3-((5-(3-fluoro-5-methoxy-4-(trifluoromethyl)phenyl)-2-((1-methyl-1H-pyrazol-4-yl)amino)pyrimidin-4-yl)amino)phenyl)acrylamide]
12 | > 10000 | 3270 | 3090 | 884 | C=CC(=O)Nc1ccc(F)c(Nc2nc(Nc3cnn(C)c3)ncc2-c2c(F)cccc2OC)c1 [Compound 63, N-(4-fluoro-3-((5-(2-fluoro-6-methoxyphenyl)-2-((1-methyl-1H-pyrazol-4-yl)amino)pyrimidin-4-yl)amino)phenyl)acrylamide]
13 | 54 | 95 | 43 | 171 | C=CC(=O)Nc1ccc(F)c(Nc2nc(Nc3cnn(C)c3)ncc2-c2ccc(N3CCC3)c(F)c2)c1 [Compound 80, N-(3-((5-(4-(azetidin-1-yl)-3-fluorophenyl)-2-((1-methyl-1H-pyrazol-4-yl)amino)pyrimidin-4-yl)amino)-4-fluorophenyl)acrylamide]
14 | > 10000 | 329 | 428 | 890 | C=CC(=O)Nc1ccc(F)c(Nc2nc(Nc3cnn(C)c3)ncc2-c2ccc(OC)c(C(F)(F)F)c2)c1 [Compound 22, N-(4-fluoro-3-((5-(4-methoxy-3-(trifluoromethyl)phenyl)-2-((1-methyl-1H-pyrazol-4-yl)amino)pyrimidin-4-yl)amino)phenyl)acrylamide]
15 | > 10000 | 295 | 293 | 262 | C=CC(=O)Nc1ccc(F)c(Nc2nc(Nc3cnn(C)c3)ncc2-c2ccc(F)c(OC)c2)c1 [Compound 4, N-(4-fluoro-3-((5-(4-fluoro-3-methoxyphenyl)-2-((1-methyl-1H-pyrazol-4-yl)amino)pyrimidin-4-yl)amino)phenyl)acrylamide]
16 | 73 | 70 | 92 | 463 | C=CC(=O)Nc1ccc(F)c(Nc2nc(Nc3cnn(C)c3)ncc2-c2cccc(Br)c2F)c1 [Compound 113, N-(3-((5-(3-bromo-2-fluorophenyl)-2-((1-methyl-1H-pyrazol-4-yl)amino)pyrimidin-4-yl)amino)-4-fluorophenyl)acrylamide]
17 | 84 | 38 | 116 | 428 | C=CC(=O)Nc1ccc(F)c(Nc2nc(Nc3cnn(C)c3)ncc2-c2ccc3c(c2)OCC3)c1 [Compound 162, N-(3-((5-(2,3-dihydrobenzofuran-6-yl)-2-((1-methyl-1H-pyrazol-4-yl)amino)pyrimidin-4-yl)amino)-4-fluorophenyl)acrylamide]
18 | 11 | 11 | 34 | 92 | C=CC(=O)Nc1ccc(F)c(Nc2nc(Nc3cnn(C)c3)ncc2-c2cc(F)c(F)c(F)c2)c1 [Compound 149, N-(4-fluoro-3-((2-((1-methyl-1H-pyrazol-4-yl)amino)-5-(3,4,5-trifluorophenyl)pyrimidin-4-yl)amino)phenyl)acrylamide]
19 | 105 | 312 | 248 |  | C=CC(=O)Nc1ccc(F)c(Nc2nc(Nc3cnn(C)c3)ncc2-c2ccc(N3CC(OC)C3)c(F)c2)c1 [Compound 79, N-(4-fluoro-3-((5-(3-fluoro-4-(3-methoxyazetidin-1-yl)phenyl)-2-((1-methyl-1H-pyrazol-4-yl)amino)pyrimidin-4-yl)amino)phenyl)acrylamide]
20 | 20 | 25 | 14 |  | [2H]C([2H])=CC(=O)Nc1ccc(F)c(Nc2nc(Nc3cnn(C)c3)ncc2-c2cnc(F)c(F)c2)c1 [Compound 103, N-(3-((5-(5,6-difluoropyridin-3-yl)-2-((1-methyl-1H-pyrazol-4-yl)amino)pyrimidin-4-yl)amino)-4-fluorophenyl)acrylamide-3,3-d2]
21 | 575 | 300 | 957 |  | C=CC(=O)Nc1ccc(F)c(Nc2nc(Nc3cnn(C)c3)ncc2-c2ccc3c(c2)CCN3C)c1 [Compound 59, N-(4-fluoro-3-((2-((1-methyl-1H-pyrazol-4-yl)amino)-5-(1-methylindolin-5-yl)pyrimidin-4-yl)amino)phenyl)acrylamide]
22 | > 10000 | 1050 | 896 |  | C=CC(=O)Nc1ccc(F)c(Nc2nc(Nc3cnn(C)c3)ncc2-c2ccc(OC)c(OC)c2)c1 [Compound 2, N-(3-((5-(3,4-dimethoxyphenyl)-2-((1-methyl-1H-pyrazol-4-yl)amino)pyrimidin-4-yl)amino)-4-fluorophenyl)acrylamide]
